Measured values published in patent EP0618796B1 (priority 1991, dated 1993).

System: not given
Experiment: not given
Details: administered individually, without analgesic; cited from earlier work

| SMILES | effectiveness against migraine |
| --- | --- |
| CC(C)(C)c1ccc(CN2CCN(C(c3ccccc3)c3ccc(Cl)cc3)CC2)cc1 (stereo not shown) [Buclizine, buclizine] | ineffective |

System: RAT MAST CELL
Experiment: Inhibition of rat mast cell degranulation in vitro (histamine release)
Assay type: cell-based, rats
Details: ID20 = inhibitory dose causing 20% inhibition, mast cells stimulated in vitro
Source text: First, mast cells from rats (peritoneal cavity) or humans (chronic peritoneal dialysis fluid) are purified; otherwise, rat basophilic leukemia (RBL) cells are kept in culture. Any of these mast cells are then exposed to various concentrations of inhibitory compounds to allow binding of the inhibitor to the receptor sites before testing their efficacy with respect to inhibition of mast cell degranulation. They are then used as such or washed free of unbound drug before exposure to stimuli known to induce degranulation. Compounds which are inhibitory prevent the stimulus from causing degranulation by binding to specific receptors or inactivating a crucial step in the degranulation process.
The mast cell degranulation blocking agent is administered in a pharmaceutically effective amount. The dosage range for pharmaceutical effectiveness can be determined by reference to standard laboratory tests for inhibition of mast cell degranulation and by the dosages used for such agents in other conditions. The pharmaceutically effective dose of the mast cell degranulation blocking agent can be approximated by its ID20, which is defined as the dose necessary to cause 20% inhibition in mast cells when applied to mast cells stimulated in vitro. The ID20 of selected inhibitors of the anti-histamine category is as follows: Table 2

| SMILES | IC20 [µM] |
| --- | --- |
| CC(C)(C)c1ccc(C(O)CCCN2CCC(C(O)(c3ccccc3)c3ccccc3)CC2)cc1 (stereo not shown) [Terfenadine] | 5 |
| OCCOCCN1CCN(C(c2ccccc2)c2ccc(Cl)cc2)CC1 (stereo not shown) [Hydroxyzine] | 50 |
| CN1CCC(=C2c3ccccc3CCc3cccnc32)CC1 [Azatadine] | 0.1 |
| CN1CCC(=C2c3ccccc3C=Cc3ccccc32)CC1 [Cyproheptadine] | 5 |
| CN1CCC(=C2c3ccccc3CC(=O)c3sccc32)CC1 [Ketotifen] | 10 |
| O=c1[nH]c2ccccc2n1CCCN1CCN(C(c2ccccc2)c2ccccc2)CC1 [Oxatomide] | 0.1 |

System: Rat Mesentery Mast Cells
Experiment: not given
Details: ED20 = effective dose causing 20% secretion; antihistamines which cause mast cell degranulation; cited from earlier work

| SMILES | ED20 for Histamine Release |
| --- | --- |
| CC(CN1c2ccccc2Sc2ccccc21)N(C)C (stereo not shown) [Promethazine] | 10^-4 M |
| CN(C)CCOC(c1ccccc1)c1ccccc1 [Diphenhydramine] | 10^-3 M |
| CN(C)CCC(c1ccc(Cl)cc1)c1ccccn1 (stereo not shown) [Clorphenyramine] | 10^-3 M |
| CN1CCN(C(c2ccccc2)c2ccccc2)CC1 [Cyclizine] | 0.0005 M |

System: not given
Experiment: not given
Details: intramuscular administration during severe migraine; hydroxyzine 50 mg; compared with placebo; cited from earlier work

| SMILES | effectiveness in the treatment of pain associated with classic migraine |
| --- | --- |
| OCCOCCN1CCN(C(c2ccccc2)c2ccc(Cl)cc2)CC1 (stereo not shown) [Hydroxyzine] | no more effective than a placebo |
| Oc1ccc2c3c1O[C@H]1[C@@H](O)CC[C@@]4(O)[C@@H](C2)N(CC2CCC2)CC[C@]314 [nalbuphine] | no more effective than a placebo |
